Laboratory results as given in patent US4285941A, “Cephalosporin compounds and antibacterial drugs containing the same” (Eisai Co., Ltd., priority 1979, dated 1981).
Counter-ions that a name gives are not always drawn.

Columns and labels:
Escherichia coli NIHJ = assay: Minimal inhibitory concentration (MIC), standard agar dilution method; type: cell-based; conditions: Mueller Hinton agar, 37° C., 18 hours, Examples 1, 2, 4, 5, 6, 8 and 22 as sodium salts, others as free carboxylic acids
Experimental: (§1) The compounds obtained in these examples were tested for their antibacterial activities in vitro. Minimal inhibitory concentration (MIC) was determined by the standard agar dilution method of the Japan Society of Chemotherapy. Compounds were dissolved in appropriate solvents (sterilized water for sodium salts and acetone-water [1:1] for free acids) and serial two-fold dilutions were made. Sodium salt of Cefazolin was chosen as the control compound. One-ml aliquots of each dilution were mixed with 9 ml of Mueller Hinton agar in petri-dishes to make agar plates containing the compound at serially diluted concentrations. After agar hardened, plates were put in an incubator at 37° C. for 1.5-2 hours with the lids slightly open to evaporate acetone off the plates. Test organisms were grown for 18 hours at 37° C. in Trypticase Soy broth and diluted in saline to approximately 10^6 colony forming units per ml. A loopful of each cell suspension was applied on the agar plate mentioned above and the plates were incubated for 18 hours at 37° C. before MIC was determined. MIC values of the compounds of Examples 1, 2, 4, 5, 6, 8 and 22 were determined as their sodium salts and those of other compounds as free carboxylic acids.

[1] = tested on: Klebsiella pneumoniae EK-6; assay: as above; type: cell-based; conditions: EK6, Mueller Hinton agar, 37° C., 18 hours, Examples 1, 2, 4, 5, 6, 8 and 22 as sodium salts, others as free carboxylic acids
Experimental: as §1

Proteus morganii EP-14 = assay: as above; type: cell-based; conditions: Morganella morganii, EP14; Mueller Hinton agar, 37° C., 18 hours; Examples 1, 2, 4, 5, 6, 8 and 22 as sodium salts, others as free carboxylic acids
Experimental: as §1

[2] = tested on: Pseudomonas aeruginosa EP-172; assay: as above; type: cell-based; conditions: EP172, Mueller Hinton agar, 37° C., 18 hours, Examples 1, 2, 4, 5, 6, 8 and 22 as sodium salts, others as free carboxylic acids
Experimental: as §1

[3] = tested on: Serratia marcescens ES-75; assay: as above; type: cell-based; conditions: ES75, Mueller Hinton agar, 37° C., 18 hours, Examples 1, 2, 4, 5, 6, 8 and 22 as sodium salts, others as free carboxylic acids
Experimental: as §1

[4] = tested on: Staphylococcus aureus 209-P; assay: as above; type: cell-based; conditions: Mueller Hinton agar, 37° C., 18 hours, Examples 1, 2, 4, 5, 6, 8 and 22 as sodium salts, others as free carboxylic acids
Experimental: as §1

[5] = Acute toxicity (LD50, mouse, oral); conditions: in vivo
From the text: The acute toxicity values [LD50 (mouse, oral)] for the following compounds, for example, were over 5 g/kg: […]

Row | Structure (SMILES) | MIC (Escherichia coli NIHJ) [µg/mL] | MIC [1] [µg/mL] | MIC (Proteus morganii EP-14) [µg/mL] | MIC [2] [µg/mL] | MIC [3] [µg/mL] | MIC [4] [µg/mL] | LD50 [5] [mg/kg]
1 | Cn1nnnc1SCC1=C(C(=O)O)N2C(=O)[C@@H](NC(=O)[C@H](NC(=O)c3coc4cc(O)c(O)cc4c3=O)c3ccccc3)[C@H]2SC1 [Example 1, Sodium salt of 7β-[D-2-(6,7-dihydroxychromone-3-carboxamido)-2-phenylacetamido]-3-[(1-methyltetrazol-5-yl)-thiomethyl]-3-cephem-4-carboxylic acid] | 0.4 | ≤ 0.1 | 0.4 | 0.8 | ≤ 0.1 | 1.56 | > 5000
2 | Cc1nnc(SCC2=C(C(=O)O)N3C(=O)[C@@H](NC(=O)[C@H](NC(=O)c4coc5cc(O)c(O)cc5c4=O)c4ccc(O)cc4)[C@H]3SC2)s1 [Example 4, Sodium salt of 7β-[D-2-(6,7-dihydroxychromone-3-carboxamido)-2-(4-hydroxyphenyl)acetamido]-3-[(5-methyl-1,3,4-thiadiazol-2-yl)thiomethyl]-3-cephem-4-carboxylicacid] | 0.8 | ≤ 0.1 | 1.56 | 1.56 | ≤ 0.1 | 1.56 | > 5000
3 | CC(=O)Oc1cc2occ(C(=O)N[C@@H](C(=O)N[C@@H]3C(=O)N4C(C(=O)O)=C(CSc5nnnn5C)CS[C@H]34)c3ccccc3)c(=O)c2cc1OC(C)=O [Example 5, Sodium salt of 7β-[D-2-(6,7-diacetoxychromone-3-carboxamido)-2-phenylacetamido]-3-[(1-methyltetrazol-5-yl)thiomethyl]-3-cephem-4-carboxylic acid] | 0.2 | ≤ 0.1 | 0.4 | 0.4 | ≤ 0.1 | 1.56 | > 5000
4 | O=C(O)C1=C(CSc2ccccn2)CS[C@@H]2[C@H](NC(=O)[C@H](NC(=O)c3coc4cc(O)c(O)cc4c3=O)c3ccc(O)cc3)C(=O)N12 [Example 24, 7β-[D-2-(6,7-Dihydroxychromone-3-carboxamido)-2-(4-hydroxyphenyl)acetamido]-3-(2-pyridylthiomethyl)-3-cephem-4-carboxylic acid] | 0.4 | ≤ 0.1 | 25 | 0.8 | ≤ 0.1 | 0.8 | 
5 | O=C(O)C1=C(CSc2cccc[n+]2[O-])CS[C@@H]2[C@H](NC(=O)[C@H](NC(=O)c3coc4cc(O)c(O)cc4c3=O)c3ccc(O)cc3)C(=O)N12 [Example 25, 7β-[D-2-(6,7-Dihydroxychromone-3-carboxamido)-2-(4-hydroxyphenyl)acetamido]-3-[2-(pyridyl-1-oxido)thiomethyl]-3-cephem-4-carboxylic acid] | 0.8 | ≤ 0.1 | 25 | 0.8 | 0.2 | 1.56 | 
6 | O=C(O)C1=C(CSc2ncccn2)CS[C@@H]2[C@H](NC(=O)[C@H](NC(=O)c3coc4cc(O)c(O)cc4c3=O)c3ccc(O)cc3)C(=O)N12 [Example 26, 7β-[D-2-(6,7-Dihydroxychromone-3-carboxamido)-2-(4-hydroxyphenyl)acetamido]-3-(2-pyrimidinylthiomethyl)-3-cephem-4-carboxylic acid] | 0.8 | ≤ 0.1 | 50 | 1.56 | 0.2 | 0.8 | 
7 | Cc1nnc(SCC2=C(C(=O)O)N3C(=O)[C@@H](NC(=O)[C@H](NC(=O)c4coc5cc(O)c(O)cc5c4=O)c4ccc(O)cc4)[C@H]3SC2)o1 [Example 27, 7β-[D-2-(6,7-Dihydroxychromone-3-carboxamido)-2-(4-hydroxyphenyl)acetoamido]-3-[(5-methyl-1,3,4-oxadiazol-2-yl)thiomethyl]-3-cephem-4-carboxylic acid] | 0.4 | ≤ 0.1 | 50 | 1.56 | 0.2 | 0.8 | 
8 | Cn1nnnc1SCC1=C(C(=O)O)N2C(=O)[C@@H](NC(=O)[C@H](NC(=O)c3coc4c(O)c(O)c(O)cc4c3=O)c3ccc(O)cc3)[C@H]2SC1 [Example 28, 7β-[D-2-(6,7,8-Trihydroxychromone-3-carboxamido)-2-(4-hydroxyphenyl)acetamido]-3-[(1-methyltetrazol-5-yl)thiomethyl]-3-cephem-4-carboxylic acid] | 3.13 | ≤ 0.1 | 50 | 0.4 | 0.8 | 3.13 | 
9 | CC(=O)Oc1cc2c(=O)c(C(=O)N[C@@H](C(=O)N[C@@H]3C(=O)N4C(C(=O)O)=C(CSc5nnnn5C)CS[C@H]34)c3ccc(O)cc3)coc2c(OC(C)=O)c1OC(C)=O [Example 29, 7β-[D-2-(6,7,8-Triacetoxychromone-3-carboxamido)-2-(4-hydroxyphenyl)acetamido]-3-[(1-methyltetrazol-5-yl)thiomethyl]-3-cephem-4-carboxylic acid] | 1.56 | ≤ 0.1 | 12.5 | 0.4 | 0.4 | 1.56 | 
10 | O=C(O)Cn1nnnc1SCC1=C(C(=O)O)N2C(=O)[C@@H](NC(=O)[C@H](NC(=O)c3coc4c(O)c(O)c(O)cc4c3=O)c3ccc(O)cc3)[C@H]2SC1 [Example 30, 7β-[D-2-(6,7,8-Trihydroxychromone-3-carboxamido)-2-(4-hydroxyphenyl)acetamido]-3-[(1-carboxymethyltetrazol-5-yl)thiomethyl]-3-cephem-4-carboxylic acid] | 0.8 | ≤ 0.1 | 50 | 0.8 | 0.8 | 12.5 | 
11 | CC(=O)Oc1cc2c(=O)c(C(=O)N[C@@H](C(=O)N[C@@H]3C(=O)N4C(C(=O)O)=C(CSc5nnnn5CC(=O)O)CS[C@H]34)c3ccc(O)cc3)coc2c(OC(C)=O)c1OC(C)=O [Example 31, 7β-[D-2-(6,7,8-Triacetoxychromone-3-carboxamido)-2-(4-hydroxyphenyl)acetamido]-3-[(1-carboxymethyltetrazol-5-yl)thiomethyl]-3-cephem-4-carboxylicacid] | 0.8 | ≤ 0.1 | 25 | 0.8 | 0.8 | 12.5 | 
12 | Cc1nnc(SCC2=C(C(=O)O)N3C(=O)[C@@H](NC(=O)Cn4cnnn4)[C@H]3SC2)s1 [Sodium salt of Cefazolin, reference compound] | 1.56 | 1.56 | > 100 | > 100 | > 100 | 0.4 | 
